Test results as given in patent publication US11021446B2 (NOVARTIS AG, priority 2013, dated 2021).

Molecular target: T1, human Farnesoid X Receptor (FXR) ligand binding domain (GST-FXR LBD) (Homo sapiens, UniProt Q96RI1)
T1 construct: purchased Invitrogen
T1 sequence (Q96RI1 193-472 isoform Q96RI1-2): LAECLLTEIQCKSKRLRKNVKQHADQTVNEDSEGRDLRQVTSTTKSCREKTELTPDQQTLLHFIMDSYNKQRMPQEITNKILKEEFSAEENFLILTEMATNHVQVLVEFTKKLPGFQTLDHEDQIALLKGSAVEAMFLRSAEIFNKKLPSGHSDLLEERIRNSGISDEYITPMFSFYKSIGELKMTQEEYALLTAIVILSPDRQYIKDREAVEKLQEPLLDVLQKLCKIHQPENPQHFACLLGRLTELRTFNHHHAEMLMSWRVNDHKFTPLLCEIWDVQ
Assay: Human GST-FXR LBD co-activator interaction assay (FXR HTRF assay)
Format: biochemical
Details: GST-FXR LBD interaction with biotin-labeled SRC-1 peptide, FRET, response relative to GW4064, read-out: FXR coactivator interaction assay (HTRF)

First: Cn1nc(C(=O)N(Cc2ccc(C(=O)O)cc2)Cc2cncc(F)c2)c2c1-c1cc(Cl)ccc1OC2 [Compound 88, 4-((8-chloro-N-((5-fluoropyridin-3-yl)methyl)-1-methyl-1,4-dihydrochromeno[4,3-c]pyrazole-3-carboxamido)methyl)benzoic acid]
Second: Cn1nc(C(=O)N(Cc2ccc(C(=O)O)cc2)Cc2cccc(F)c2)c2c1-c1cc(Cl)ccc1OC2 [Compound 95, 4-((8-chloro-N-(3-fluorobenzyl)-1-methyl-1,4-dihydrochromeno[4,3-c]pyrazole-3-carboxamido)methyl)benzoic acid]
The EC50 of the first is 4.3-fold higher: 0.015 µM for the first, 0.0035 µM for the second.

`Cn1nc(C(=O)N(Cc2cccc(F)c2)Cc2ccc(C(=O)O)c(F)c2)c2c1-c1cc(Cl)ccc1OC2` [Compound 90, 4-((8-chloro-N-(3-fluorobenzyl)-1-methyl-1,4-dihydrochromeno[4,3-c]pyrazole-3-carboxamido)methyl)-2-fluorobenzoic acid] and `Cn1nc(C(=O)N(Cc2ccccc2)Cc2ccc(C(=O)O)c(F)c2)c2c1-c1cc(Cl)ccc1OC2` [Compound 91, 4-((N-benzyl-8-chloro-1-methyl-1,4-dihydrochromeno[4,3-c]pyrazole-3-carboxamido)methyl)-2-fluorobenzoic acid] are within 1.5-fold of each other in EC50: 0.005 µM for the first, 0.0065 µM for the second.

`Cn1nc(C(=O)N(Cc2ccc(C(=O)O)cc2)Cc2ccccc2F)c2c1-c1cc(Cl)ccc1OC2` [Compound 92, 4-((8-chloro-N-(2-fluorobenzyl)-1-methyl-1,4-dihydrochromeno[4,3-c]pyrazole-3-carboxamido)methyl)benzoic acid] and `Cn1nc(C(=O)N(Cc2ccccc2F)Cc2ccc(C(=O)O)cc2F)c2c1-c1cc(Cl)ccc1OC2` [Compound 93, 4-((8-chloro-N-(2-fluorobenzyl)-1-methyl-1,4-dihydrochromeno[4,3-c]pyrazole-3-carboxamido)methyl)-3-fluorobenzoic acid] are within 1.5-fold of each other in EC50: 0.014 µM for the first, 0.013 µM for the second.

Going from `Cn1nc(C(=O)N(Cc2ccccc2F)Cc2ccc(C(=O)O)cc2F)c2c1-c1cc(F)ccc1OC2` [Compound 94, 3-fluoro-4-((8-fluoro-N-(2-fluorobenzyl)-1-methyl-1,4-dihydrochromeno[4,3-c]pyrazole-3-carboxamido)methyl)benzoic acid] to `Cn1nc(C(=O)N(Cc2cccc(F)c2)Cc2ccc(C(=O)O)cc2F)c2c1-c1cc(Cl)ccc1OC2` [Compound 96, 4-((8-chloro-N-(3-fluorobenzyl)-1-methyl-1,4-dihydrochromeno[4,3-c]pyrazole-3-carboxamido)methyl)-3-fluorobenzoic acid], the EC50 falls from 0.032 µM to 0.0036 µM (8.9-fold). The second is the more potent here.

Going from `Cn1nc(C(=O)N(Cc2ccc(C(=O)O)c(F)c2)Cc2ccccc2F)c2c1-c1cc(Cl)ccc1OC2` [Compound 97, 4-((8-chloro-N-(2-fluorobenzyl)-1-methyl-1,4-dihydrochromeno[4,3-c]pyrazole-3-carboxamido)methyl)-2-fluorobenzoic acid] to `Cn1nc(C(=O)N(CCNc2cc(C(=O)O)ccc2F)Cc2ccccc2F)c2c1-c1cc(Cl)ccc1OC2` [Compound 101, 3-((2-(8-chloro-N-(2-fluorobenzyl)-1-methyl-1,4-dihydrochromeno[4,3-c]pyrazole-3-carboxamido)ethyl)amino)-4-fluorobenzoic Acid], the EC50 falls from 0.017 µM to 0.0055 µM (3.1-fold).

Work on `Cc1nc(C(=O)O)ccc1CN(Cc1cccc(F)c1)C(=O)c1nn(C)c2c1COc1ccc(Cl)cc1-2` [Compound 99, 5-((8-chloro-N-(3-fluorobenzyl)-1-methyl-1,4-dihydrochromeno[4,3-c]pyrazole-3-carboxamido)methyl)-6-methylpicolinic acid] yielded an EC50 of 0.029 µM.
